Five molecules from the supplement of paper PMC12698765 can be followed below.

In experiment [1] the test system is 409B2 hiPSC (iCRISPR Cas9, FRMD7 editing). Description: NHEJ-attributed indel frequency relative to solvent control (fold (ratio to mock)); higher = more NHEJ outcomes. The protocol: (§1)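 Subset screen of 55 drugs tested at 5 concentrations around the effective screening dose, in 409B2 iCRISPR Cas9 hiPSCs editing FRMD7 with a ssDNA donor. Drugs were applied for 24 h. Viability was read by resazurin and editing outcomes by amplicon sequencing (HDR, NHEJ <2 bp microhomology, MMEJ ≥2 bp microhomology). Values are relative to solvent mock controls; two biological replicates.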

The test system is the same in experiment [2]. Description: cell survival relative to solvent control (fold (ratio to mock)); higher = more surviving cells. The protocol:
as §1

For experiment [3] the test system is unchanged. Briefly: MMEJ-attributed deletion frequency relative to solvent control (fold (ratio to mock)); higher = more MMEJ outcomes. The procedure:
as §1

The test system is the same in experiment [4]. Description: HDR (precise edit) frequency relative to solvent control (fold (ratio to mock)); higher = more homology-directed repair outcomes. The procedure: as §1

Where a name gives a salt, the structure may show the parent alone. ± gives the standard deviation of the averaged measurements.

In the case of `CC(CCc1ccccc1)NCC(O)c1ccc(O)c(C(N)=O)c1` (stereo not given) [Labetalol HCl] (in DMSO), the NHEJ-attributed indel frequency came out at 0.988 ± 0.029 in experiment [1] (2000 nM); 1.02 ± 0.0051 in experiment [1] (5000 nM); 1.05 ± 0.018 in experiment [1] (10000 nM); 1.093 ± 0.0077 in experiment [1] (20000 nM); 1.0876 ± 0.00036 in experiment [1] (50000 nM). Further, the cell survival in experiment [2] (2000 nM) came to 0.953; in experiment [2] (5000 nM), 1.39; in experiment [2] (10000 nM) it was 1.08; in experiment [2] (20000 nM), 1.14; in experiment [2] (50000 nM), 1.15. Further, the MMEJ-attributed deletion frequency amounted to 1.04 ± 0.027 in experiment [3] (2000 nM); 0.975 ± 0.13 in experiment [3] (5000 nM); 1.13 ± 0.15 in experiment [3] (10000 nM); 1.08 ± 0.034 in experiment [3] (20000 nM); 1.25 ± 0.049 in experiment [3] (50000 nM). Also, the HDR stood at 1.05 ± 0.063 in experiment [4] (2000 nM); 0.878 ± 0.059 in experiment [4] (5000 nM); 0.834 ± 0.025 in experiment [4] (10000 nM); 0.757 ± 0.049 in experiment [4] (20000 nM); 0.756 ± 0.028 in experiment [4] (50000 nM).

Consider `CC[C@]1(O)C[C@@H]2CN(CCc3c([nH]c4ccccc34)[C@@](C(=O)OC)(c3cc4c(cc3OC)N(C)[C@H]3[C@@](O)(C(=O)OC)[C@H](OC(C)=O)[C@]5(CC)C=CCN6CC[C@]43[C@@H]65)C2)C1` [vinblastine] (in DMSO), for which the NHEJ-attributed indel frequency stood at 1.07 ± 0.05 in experiment [1] (2 nM); 0.982 ± 0.17 in experiment [1] (5 nM); 0.857 ± 0.17 in experiment [1] (10 nM); 0.415 ± 0.0047 in experiment [1] (20 nM); 0.557 ± 0.013 in experiment [1] (50 nM). In addition, the cell survival was determined as 0.524 in experiment [2] (2 nM); 0.114 in experiment [2] (5 nM); 0.0472 in experiment [2] (10 nM); 0.00549 in experiment [2] (20 nM); 0.0072 in experiment [2] (50 nM). Moreover, the MMEJ-attributed deletion frequency in experiment [3] (2 nM) came out at 1.02 ± 0.27; in experiment [3] (5 nM), 1.51 ± 0.71; in experiment [3] (10 nM), 0.931 ± 0.61; in experiment [3] (20 nM), 0.674 ± 0.053; in experiment [3] (50 nM) it was 0.827 ± 0.05. Besides, the HDR amounted to 0.877 ± 0.038 in experiment [4] (2 nM); 0.65 ± 0.05 in experiment [4] (5 nM); 0.556 ± 0.031 in experiment [4] (10 nM); 0.249 ± 0.051 in experiment [4] (20 nM); 0.248 ± 0.035 in experiment [4] (50 nM).

Regarding `CNCC[C@H](Oc1cccc2ccccc12)c1cccs1` [Duloxetine HCl] (in DMSO), the NHEJ-attributed indel frequency in experiment [1] (2000 nM) was determined as 0.932 ± 0.027; in experiment [1] (5000 nM), 0.986 ± 0.0019; in experiment [1] (10000 nM) it was 0.998 ± 0.025; in experiment [1] (20000 nM), 1.029 ± 0.0059; in experiment [1] (50000 nM), 0.517 ± 0.45. Moreover, the cell survival in experiment [2] (2000 nM) turned out to be 0.92; in experiment [2] (5000 nM) it was 1.24; in experiment [2] (10000 nM), 1.18; in experiment [2] (20000 nM) it was 0.796; in experiment [2] (50000 nM), 0.0121. Also, the MMEJ-attributed deletion frequency in experiment [3] (2000 nM) was 1.09 ± 0.25; in experiment [3] (5000 nM), 1.14 ± 0.069; in experiment [3] (10000 nM), 1.36 ± 0.053; in experiment [3] (20000 nM), 1.86 ± 0.036; in experiment [3] (50000 nM), 1.42 ± 0.81. Further, the HDR turned out to be 1.02 ± 0.13 in experiment [4] (2000 nM); 1.14 ± 0.024 in experiment [4] (5000 nM); 1.02 ± 0.0038 in experiment [4] (10000 nM); 0.88 ± 0.06 in experiment [4] (20000 nM); 0.33 ± 0.35 in experiment [4] (50000 nM).

Turning to `NC(=O)CC[C@@H](N)C(=O)O` [D-Glutamine] (in H2O), the NHEJ-attributed indel frequency in experiment [1] (20 nM) came out at 1.02 ± 0.029; in experiment [1] (50 nM) it was 1.03 ± 0.016; in experiment [1] (100 nM), 1.02 ± 0.028; in experiment [1] (200 nM), 1.03 ± 0.025; in experiment [1] (500 nM) it was 1.01 ± 0.024. Further, the cell survival in experiment [2] (20 nM) turned out to be 0.958; in experiment [2] (50 nM) it was 1.03; in experiment [2] (100 nM), 0.932; in experiment [2] (200 nM), 1.16; in experiment [2] (500 nM), 0.888. For the same molecule, the MMEJ-attributed deletion frequency in experiment [3] (20 nM) came to 0.971 ± 0.055; in experiment [3] (50 nM), 0.874 ± 0.034; in experiment [3] (100 nM), 0.887 ± 0.17; in experiment [3] (200 nM), 0.933 ± 0.064; in experiment [3] (500 nM) it was 0.918 ± 0.092. Besides, the HDR in experiment [4] (20 nM) came to 0.953 ± 0.047; in experiment [4] (50 nM), 0.985 ± 0.033; in experiment [4] (100 nM), 0.9265 ± 0.0046; in experiment [4] (200 nM), 0.985 ± 0.031; in experiment [4] (500 nM) it was 0.965 ± 0.055.

In the case of `CC[C@]1(O)C[C@@H]2CN(CCc3c([nH]c4ccccc34)[C@@](C(=O)OC)(c3cc4c(cc3OC)N(C)[C@H]3[C@@](O)(C(=O)OC)[C@H](OC(C)=O)[C@]5(CC)C=CCN6CC[C@]43[C@@H]65)C2)C1` [Vinblastine sulfate] (in DMSO), the NHEJ-attributed indel frequency in experiment [1] (2 nM) came to 1.04 ± 0.018; in experiment [1] (5 nM), 0.958 ± 0.12; in experiment [1] (10 nM), 0.792 ± 0.39; in experiment [1] (20 nM), 0.606 ± 0.21; in experiment [1] (50 nM) it was 0.498 ± 0.064. For the same molecule, the cell survival is 0.687 in experiment [2] (2 nM); 0.117 in experiment [2] (5 nM); 0.0623 in experiment [2] (10 nM); 0.00294 in experiment [2] (20 nM); 0.00452 in experiment [2] (50 nM). The MMEJ-attributed deletion frequency in experiment [3] (2 nM) turned out to be 1.11 ± 0.049; in experiment [3] (5 nM) it was 1.08 ± 0.057; in experiment [3] (10 nM), 1.13 ± 0.55; in experiment [3] (20 nM), 0.779 ± 0.3; in experiment [3] (50 nM), 0.6333 ± 0.0063. The HDR in experiment [4] (2 nM) came out at 1.08 ± 0.098; in experiment [4] (5 nM) it was 0.737 ± 0.042; in experiment [4] (10 nM), 0.633 ± 0.4; in experiment [4] (20 nM) it was 0.511 ± 0.28; in experiment [4] (50 nM), 0.302 ± 0.056.
